This note sets out measurements from patent publication US20240360119A1, “SMALL MOLECULE UREA DERIVATIVES AS STING ANTAGONISTS” (CURADEV PHARMA PVT. LTD., priority 2021, published 2024).

A word on the IC50: it is the point on the concentration scale where inhibition reaches its midpoint.

In this assay the test system is STING (IRF pathway reporter in THP1-Dual™ cells, THP-1 (HAQ)). As to the kind of experiment: Reporter gene expression assay in THP-1 cells (THP1-Dual, IRF pathway Lucia luciferase, 2′,3′-cGAMP stimulation). Particulars: 10 min preincubation, 5 μM 2′,3′-cGAMP, 20 hr, IRF pathway luciferase (QUANTI-Luc), IC50 range class. The assay is classed as cell-based, human. As to the method: THP1-Dual™ cells (Invivogen) were derived from the human THP-1 monocyte cell line by stable integration of two inducible reporter constructs. As a result, THP1-Dual™ cells allow the simultaneous study of the IRF pathway, by assessing the activity of a secreted luciferase (Lucia) and the NF-κB pathway, by monitoring the activity of secreted SEAP. 5×10^4 THP1-Dual™ cells were seeded in 384-well plates in growth medium and preincubated with novel compounds for 10 minutes followed by stimulation with 5 μM 2′,3′-cGAMP. After 20 hr of stimulation the supernatant was removed and the IRF pathway reporter protein was readily measured in the cell culture supernatant using QUANTI-Luc™ (Invivogen), a luciferase detection reagent on a Spectramax i3X luminometer.
In the tables below, IC50 value ranges for exemplary compounds are given. The IC50 ranges are indicated as “A” for values less than or equal to 1 μM, “B” for values greater than 1 μM and less than or equal to 10 μM, and “C” for values greater than 10 μM.
(In general: A reporter such as luciferase makes a cellular process visible.)

Compound `CN(C)C(=O)CC(NC(=O)Nc1ccc2cc[nH]c2c1)c1ccc2c(c1)N(Cc1ccccc1)CCS2` (racemic) [Example 4, 3-(3-(1H-indol-6-yl)ureido)-3-(4-benzyl-3,4-dihydro-2H-benzo[b][1,4]thiazin-6-yl)-N,N-dimethylpropanamide] gave an IC50 (Homo sapiens) of 1000 to 10000 nM.

As to `O=C(Nc1ccc2cc[nH]c2c1)NC(CO)c1ccc2c(c1)N(Cc1ccccc1)CCS2` (racemic) [Example 11, 1-(1-(4-Benzyl-3,4-dihydro-2H-benzo[b][1,4]thiazin-6-yl)-2-hydroxyethyl)-3-(1H-indol-6-yl)urea], the IC50 (Homo sapiens) is ≤ 1000 nM.

For `CN(C)C(=O)CC(NC(=O)Nc1ccc2cc[nH]c2c1)c1ccc2c(c1)N(Cc1ccccc1)CCS2` (single isomer, unassigned) [Example 5, 3-(3-(1H-indol-6-yl)ureido)-3-(4-benzyl-3,4-dihydro-2H-benzo[b][1,4]thiazin-6-yl)-N,N-dimethylpropanamide], the IC50 (Homo sapiens) lay in the range of 1000 to 10000 nM.

With `CN(C)C(=O)CC(NC(=O)Nc1ccc2cc[nH]c2c1)c1ccc2c(c1)N(Cc1ccccc1)CCS2` (single isomer, unassigned) [Example 6, 3-(3-(1H-indol-6-yl)ureido)-3-(4-benzyl-3,4-dihydro-2H-benzo[b][1,4]thiazin-6-yl)-N,N-dimethylpropanamide], the half-inhibitory concentration (IC50) was 1000 to 10000 nM.

On to `O=C(Nc1ccc2cc[nH]c2c1)NC(CC(O)CO)c1ccc2c(c1)N(Cc1ccccc1)CCO2` (single isomer, unassigned) [Example 7, 1-(1-(4-Benzyl-3,4-dihydro-2H-benzo[b][1,4]oxazin-6-yl)-3,4-dihydroxybutyl)-3-(1H-indol-6-yl)urea], for which the IC50 (Homo sapiens) was > 10000 nM.

Consider `O=C(Nc1ccc2cc[nH]c2c1)NC(CC(O)CO)c1ccc2c(c1)N(Cc1ccccc1)CCO2` (single isomer, unassigned) [Example 8, 1-(1-(4-Benzyl-3,4-dihydro-2H-benzo[b][1,4]oxazin-6-yl)-3,4-dihydroxybutyl)-3-(1H-indol-6-yl)urea], for which the IC50 was > 10000 nM.

Turning to `O=C(Nc1ccc2cc[nH]c2c1)NC(CO)c1ccc2c(c1)N(Cc1ccccc1)CCS2` (single isomer, unassigned) [Example 12, 1-(1-(4-benzyl-3,4-dihydro-2H-benzo[b][1,4]thiazin-6-yl)-2-hydroxyethyl)-3-(1H-indol-6-yl)urea], where the note is “Homo sapiens”, the IC50 is ≤ 1000 nM.

`O=C(Nc1ccc2cc[nH]c2c1)NC(CO)c1ccc2c(c1)N(Cc1ccccc1)CCS2` (single isomer, unassigned) [Example 13, 1-(1-(4-benzyl-3,4-dihydro-2H-benzo[b][1,4]thiazin-6-yl)-2-hydroxyethyl)-3-(1H-indol-6-yl)urea]: the IC50 is ≤ 1000 nM.

`O=C(NCc1ccc2c(c1)N(Cc1ccccc1)CCS2)Nc1ccc2cc[nH]c2c1` [Example 1, 1-((4-Benzyl-3,4-dihydro-2H-benzo[b][1,4]thiazin-6-yl)methyl)-3-(1H-indol-6-yl)urea]: the IC50 (Homo sapiens) was ≤ 1000 nM.

Regarding `O=C(NCc1ccc2c(c1)OCC(=O)N2Cc1ccccc1)Nc1ccc2cc[nH]c2c1` [Example 2, 1-((4-Benzyl-3-oxo-3,4-dihydro-2H-benzo[b][1,4]oxazin-7-yl)methyl)-3-(1H-indol-6-yl)urea], the IC50 (Homo sapiens) is 1000 to 10000 nM.

As to `O=C(NCc1ccc2c(c1)OCCN2Cc1ccccc1)Nc1ccc2cc[nH]c2c1` [Example 3, 1-((4-Benzyl-3,4-dihydro-2H-benzo[b][1,4]oxazin-7-yl)methyl)-3-(1H-indol-6-yl)urea], the IC50 (Homo sapiens) was ≤ 1000 nM.

For `C=CCC(NC(=O)Nc1ccc2cc[nH]c2c1)c1ccc2c(c1)N(Cc1ccccc1)CCS2` (stereo not shown) [Example 9, 1-(1-(4-Benzyl-3,4-dihydro-2H-benzo[b][1,4]thiazin-6-yl)but-3-en-1-yl)-3-(1H-indol-6-yl)urea], the IC50 (Homo sapiens) is ≤ 1000 nM.

Consider `O=C(O)CC(NC(=O)Nc1ccc2cc[nH]c2c1)c1ccc2c(c1)N(Cc1ccccc1)CCS2` (stereo not shown) [Example 10, 3-(3-(1H-Indol-6-yl)ureido)-3-(4-benzyl-3,4-dihydro-2H-benzo[b][1,4]thiazin-6-yl)propanoic acid], for which, for the setting “Homo sapiens”, the IC50 is > 10000 nM.

On to `O=C(NCc1ccc2c(c1)N(c1ccccc1)CCS2)Nc1ccc2cc[nH]c2c1` [Example 14, 1-(1H-Indol-6-yl)-3-((4-phenyl-3,4-dihydro-2H-benzo[b][1,4]thiazin-6-yl)methyl)urea], for which the IC50 (Homo sapiens) was ≤ 1000 nM.

As for `O=C(NCc1ccc2c(c1)N(Cc1ccccc1)CCO2)Nc1ccc2cc[nH]c2c1` [Example 15, 1-((4-benzyl-3,4-dihydro-2H-benzo[b][1,4]oxazin-6-yl)methyl)-3-(1H-indol-6-yl)urea], the IC50 (Homo sapiens) is ≤ 1000 nM.

On to `O=C(NCc1ccc2c(c1)SCCN2Cc1ccccc1)Nc1ccc2cc[nH]c2c1` [Example 16, 1-((4-benzyl-3,4-dihydro-2H-benzo[b][1,4]thiazin-7-yl)methyl)-3-(1H-indol-6-yl)urea], for which the IC50 (Homo sapiens) is ≤ 1000 nM.

In the case of `O=C(NCc1ccc2c(c1)SCC(=O)N2Cc1ccccc1)Nc1ccc2cc[nH]c2c1` [Example 17, 1-((4-benzyl-3-oxo-3,4-dihydro-2H-benzo[b][1,4]thiazin-7-yl)methyl)-3-(1H-indol-6-yl)urea], the half-inhibitory concentration (IC50) (Homo sapiens) is ≤ 1000 nM.

Where the note is “Homo sapiens”, `O=C(NCc1ccc2c(c1)N(Cc1ccccc1)C(=O)CS2)Nc1ccc2cc[nH]c2c1` [Example 18, 1-((4-benzyl-3-oxo-3,4-dihydro-2H-benzo[b][1,4]thiazin-6-yl)methyl)-3-(1H-indol-6-yl)urea] had a half-inhibitory concentration (IC50) of 1000 to 10000 nM.

For the compound `O=C(NCc1ccc2c(c1)N(c1ccccc1)CCO2)Nc1ccc2cc[nH]c2c1` [Example 19, 1-(1H-indol-6-yl)-3-((4-phenyl-3,4-dihydro-2H-benzo[b][1,4]oxazin-6-yl)methyl)urea], for the setting “Homo sapiens”, the IC50 was ≤ 1000 nM.

For the setting “Homo sapiens”, `O=C(NCc1ccc2c(c1)SCCN2c1ccccc1)Nc1ccc2cc[nH]c2c1` [Example 20, 1-(1H-indol-6-yl)-3-((4-phenyl-3,4-dihydro-2H-benzo[b][1,4]thiazin-7-yl)methyl)urea] displayed an IC50 of 1000 to 10000 nM.

For `O=C(NCc1ccc2c(c1)OCCN2c1ccccc1)Nc1ccc2cc[nH]c2c1` [Example 21, 1-(1H-indol-6-yl)-3-((4-phenyl-3,4-dihydro-2H-benzo[b][1,4]oxazin-7-yl)methyl)urea], the IC50 (Homo sapiens) was ≤ 1000 nM.

Take `O=C(Nc1ccc2cc[nH]c2c1)NC(CCN1CCOCC1)c1ccc2c(c1)N(Cc1ccccc1)CCS2` (stereo not shown) [Example 22, 1-(1-(4-benzyl-3,4-dihydro-2H-benzo[b][1,4]thiazin-6-yl)-3-morpholinopropyl)-3-(1H-indol-6-yl)urea]: the IC50 (Homo sapiens) is > 10000 nM.

For `NC(=O)CC(NC(=O)Nc1ccc2cc[nH]c2c1)c1ccc2c(c1)N(Cc1ccccc1)CCS2` (stereo not shown) [Example 23, 3-(3-(1H-indol-6-yl)ureido)-3-(4-benzyl-3,4-dihydro-2H-benzo[b][1,4]thiazin-6-yl)propanamide], the IC50 (Homo sapiens) was ≤ 1000 nM.

In the case of `O=C(Nc1ccc2cc[nH]c2c1)NC(CCO)c1ccc2c(c1)N(Cc1ccccc1)CCS2` (stereo not shown) [Example 24, 1-(1-(4-benzyl-3,4-dihydro-2H-benzo[b][1,4]thiazin-6-yl)-3-hydroxypropyl)-3-(1H-indol-6-yl)urea], for the setting “Homo sapiens”, the IC50 was > 10000 nM.

Turning to `O=C(Nc1ccc2cc[nH]c2c1)NC(CC(O)CO)c1ccc2c(c1)N(Cc1ccccc1)CC[S+]2[O-]` (stereo not shown) [Example 25, 1-(1-(4-benzyl-1-oxido-3,4-dihydro-2H-benzo[b][1,4]thiazin-6-yl)-3,4-dihydroxybutyl)-3-(1H-indol-6-yl)urea], the IC50 (Homo sapiens) is > 10000 nM.

As for `CNC(=O)CC(NC(=O)Nc1ccc2cc[nH]c2c1)c1ccc2c(c1)N(Cc1ccccc1)CCS2` (stereo not shown) [Example 26, 3-(3-(1H-indol-6-yl)ureido)-3-(4-benzyl-3,4-dihydro-2H-benzo[b][1,4]thiazin-6-yl)-N-methylpropanamide], the IC50 (Homo sapiens) fell in the range of 1000 to 10000 nM.

Take `O=C(Nc1ccc2cc[nH]c2c1)NC(CC(=O)N1CCCC1)c1ccc2c(c1)N(Cc1ccccc1)CCS2` (stereo not shown) [Example 27, 1-(1-(4-benzyl-3,4-dihydro-2H-benzo[b][1,4]thiazin-6-yl)-3-oxo-3-(pyrrolidin-1-yl)propyl)-3-(1H-indol-6-yl)urea]: the IC50 (Homo sapiens) was in the range of 1000 to 10000 nM.

Compound `CON(C)C(=O)CC(NC(=O)Nc1ccc2cc[nH]c2c1)c1ccc2c(c1)N(Cc1ccccc1)CCS2` (stereo not shown) [Example 28, 3-(3-(1H-indol-6-yl)ureido)-3-(4-benzyl-3,4-dihydro-2H-benzo[b][1,4]thiazin-6-yl)-N-methoxy-N-methylpropanamide] gave an IC50 (Homo sapiens) of 1000 to 10000 nM.

As for `O=C(Nc1ccc2cc[nH]c2c1)NC(CC(=O)N1CCC(O)C1)c1ccc2c(c1)N(Cc1ccccc1)CCS2` (stereo not shown) [Example 29, 1-(1-(4-benzyl-3,4-dihydro-2H-benzo[b][1,4]thiazin-6-yl)-3-(3-hydroxypyrrolidin-1-yl)-3-oxopropyl)-3-(1H-indol-6-yl)urea], for the setting “Homo sapiens”, the IC50 was > 10000 nM.

As for `O=C(Nc1ccc2cc[nH]c2c1)NC(CC(=O)N1CCOCC1)c1ccc2c(c1)N(Cc1ccccc1)CCS2` (stereo not shown) [Example 30, 1-(1-(4-benzyl-3,4-dihydro-2H-benzo[b][1,4]thiazin-6-yl)-3-morpholino-3-oxopropyl)-3-(1H-indol-6-yl)urea], the IC50 (Homo sapiens) lay in the range of 1000 to 10000 nM.

Under “Homo sapiens”, `CN(CCO)C(=O)CC(NC(=O)Nc1ccc2cc[nH]c2c1)c1ccc2c(c1)N(Cc1ccccc1)CCS2` (stereo not shown) [Example 31, 3-(3-(1H-indol-6-yl)ureido)-3-(4-benzyl-3,4-dihydro-2H-benzo[b][1,4]thiazin-6-yl)-N-(2-hydroxyethyl)-N-methylpropanamide] registered an IC50 of 1000 to 10000 nM.
